Results reported in patent US20060084652A1, “Alkylidene-tetrahydronaphthalene derivatives, process for their production and their use as anti-inflammatory agents” (priority 2004, published 2006).

Columns and labels:
[1] = test system: secretion of cytokine IL-8 in monocyte cell line THP-1; test: Inhibition of LPS-triggered IL-8 secretion in THP-1 cells (ELISA); assay type: cell-based, human
Protocol: The concentration of the cytokines was determined in the supernatant by means of commercially available ELISA kits.

[2] = target: T1, glucocorticoid receptor (GR) (Homo sapiens, UniProt P04150); test: Binding to the glucocorticoid receptor, cytosol preparations of Sf9 cells, [3H]-dexamethasone as reference; settings: recombinant GR
T1 construct: made in house; host or cells: Sf9 cells infected with recombinant baculovirus (cytosol preparation)
T1 sequence (P04150 1-777): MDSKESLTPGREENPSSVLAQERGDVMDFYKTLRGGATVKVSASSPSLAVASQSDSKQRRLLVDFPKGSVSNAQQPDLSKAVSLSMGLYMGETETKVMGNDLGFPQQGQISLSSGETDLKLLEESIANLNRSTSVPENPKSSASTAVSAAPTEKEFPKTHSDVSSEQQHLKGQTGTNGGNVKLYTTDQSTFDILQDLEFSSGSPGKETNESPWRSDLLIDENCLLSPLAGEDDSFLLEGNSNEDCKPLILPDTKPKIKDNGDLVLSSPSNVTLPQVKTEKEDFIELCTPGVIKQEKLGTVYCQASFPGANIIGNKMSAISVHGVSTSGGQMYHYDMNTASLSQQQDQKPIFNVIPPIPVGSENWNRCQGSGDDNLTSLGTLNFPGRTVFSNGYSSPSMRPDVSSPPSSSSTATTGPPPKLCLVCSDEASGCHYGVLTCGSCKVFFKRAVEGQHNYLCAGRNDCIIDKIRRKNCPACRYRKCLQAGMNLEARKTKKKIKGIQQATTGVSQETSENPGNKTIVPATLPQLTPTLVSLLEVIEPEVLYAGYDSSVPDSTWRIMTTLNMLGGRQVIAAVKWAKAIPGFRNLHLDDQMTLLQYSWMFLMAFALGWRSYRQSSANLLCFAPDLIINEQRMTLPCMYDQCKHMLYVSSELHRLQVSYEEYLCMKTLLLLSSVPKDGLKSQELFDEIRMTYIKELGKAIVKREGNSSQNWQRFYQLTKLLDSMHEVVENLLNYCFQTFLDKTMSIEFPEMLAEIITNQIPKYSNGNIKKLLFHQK
Description: The binding of substances to the glucocorticoid receptor (GR) and other steroid-hormone receptors (mineral corticoid receptor (MR), progesterone receptor (PR) and androgen receptor (AR)) is examined with the aid of recombinantly produced receptors. Cytosol preparations of Sf9 cells, which had been infected with recombinant baculoviruses that code for the GR, are used for the binding studies. In comparison to the reference substance [^3H]-dexamethasone, the substances show a high affinity to the GR. IC50(GR)=20 nM and IC50(PR)>1 μM were measured for the compound from Example 1, and IC50(GR)=30 nM and IC50(PR)>1 μM were measured for the compound from Example 2.

| Molecule | efficiency relative to [3H]-dexamethasone as a standard ([1]; IL-8 inhibition, THP-1) | IC50 ([1]; THP-1, supernatant ELISA, read-out: IC50(IL8)) | IC50 [2] |
| --- | --- | --- | --- |
| C/C=C1/C[C@@](O)(C(F)(F)F)[C@H](Nc2cccc3nc(C)ccc23)c2ccc(F)cc21 (relative stereo) [Example 1, (cis, Z)-4-Ethylidene-6-fluoro-1-[(2-methylquinolin-5-yl)amino]-2-(trifluoromethyl)-1,2,3,4-tetrahydronaphthalen-2-ol] | 90% | 6.4 nM | 20 nM |
| (cis, Z)-5-{[4-Ethylidene-6-fluoro-2,5-dihydroxy-2-(trifluoromethyl)-1,2,3,4-tetrahydronaphthalen-1-yl]amino}-quinolin-2(1H)-one [Example 2] | – | – | 30 nM |
